{"source": "patent US20080038809A1", "about": "“ISOLATED LECTIN POLYPEPTIDES CONSISTING OF TRUNCATED […] UDP-GalNAc:POLYPEPTIDE N- ACETYLGALACTOSAMINYLTRANSFERASES” (GLYCOZYM APS, priority 2002, published 2008)", "key": {"[1]": {"tested_on": "MUC5AC in HT-29 MTX cells", "test": "MUC5AC secretion, SDS-PAGE western blot of media with LUM5-1 (FIG. 17)", "assay_type": "cell-based, human", "conditions": "5 mM, continuous culture, media at 14 days", "experimental": "FIG. 17 illustrates SDS-PAGE Western analysis of MUC5AC secretion from HT29MTX cells using polyclonal anti-MUC5AC antibody LUM5-1. In order to evaluate GalNAcβ-benzyl as an inhibitor of mucin glycosylation and secretion we used the HT-29 metotrexate (MTX) cultured colon carcinoma cells of mucin secreting phenotype. HT-29 MTX cells have a goblet cell like phenotype with constitutive production of MUC5AC. Cells were continuously grown up to 21 days in the presence of 5 mM GalNAcα-benzyl, 5 mM GalNAcβ-benzyl, 5 mM GlcNAcα-benzyl and without inhibitor. […] In striking contrast, MUC5AC was not detected in the media from cells treated with GalNAcα-benzyl (Lane 3) or GalNAcβ-benzyl (Lane 4). Results shown are from media collected at 14 days.\nIn order to evaluate GalNAcβ-benzyl as an inhibitor of mucin glycosylation and secretion we used the cultured colon carcinoma cells of mucin secreting phenotypes: HT-29 metotrexate (MTX) cells selected from the HT-29 cell line by culture in the presence of MTX (kind gift from G. Huet, France). The HT-29 MTX cells were selected to yield a goblet cell like phenotype with constitutive production of MUC5AC. In order to ensure proper goblet cell differentiation the HT29MTX cell line were continuously grown up to 21 days in the presence of 5 mM GalNAcα-benzyl, 5 mM GalNAcβ-benzyl, 5 mM GlcNAcα-benzyl and without inhibitor using culture conditions as described in Hennebicq-Reig et al. (Permanent exposure of mucin-secreting HT-29 cells to benzyl-N-acetyl-alpha-D-galactosaminide induces abnormal O-glycosylation of mucins and inhibits constitutive and stimulated MUC5AC secretion. Biochem J. 1998; 334:283-95). […] Furthermore the viscosity of the media from cells with and without inhibitor was evaluated using viscosity micro-measurement."}, "[2]": {"tested_on": "MUC1 in CHO1d1D/MUC1F-clone2 cells", "test": "MUC1 expression in cell lysates, immunoprecipitation and SDS-PAGE western blot (FIGS. 12-15)", "assay_type": "cell-based, Chinese Hamster", "conditions": "2 mM, 48 hours", "experimental": "FIG. 12 is an SDS-PAGE Western analysis of GalNAcα-benzyl inhibition of MUC1 expression in CHO 1d1D cells stably transfected with a full coding MUC1 construct. […] Cells were further treated with 2 mM GalNAcα-benzyl (lanes 1, 4, 7, 10), 2 mM GlcNAcα-benzyl (lanes 2, 5, 8, 11) or no inhibitor (lanes 3, 6, 9, 12). Cells were washed and lysed at 24 or 48 hours and the lysates subjected to immunoprecipitation with monoclonal antibody HMFG2, which broadly recognize MUC1 glycoforms. Immunoprecipitates were analysed by SDS-PAGE and western blot using HMFG2 antibody to detect MUC1 expression. Lane M indicates molecular markers with assigned mw. Lane C includes a control MUC1 180-mer tandem repeat peptide which has been GalNAc-glycosylated with 3 moles GalNAc per repeat using GalNAc-T2. The sharp bands migrating at 100-200 kd are immunoglobulins indicated by IgG.\nCells were further treated with 2 mM GalNAcα-benzyl (lanes 1, 4, 7, 10), 2 mM GalNAcβ-benzyl (lanes 2, 5, 8, 11) or 2 mM GlcNAcα-benzyl (lanes 3, 6, 9, 12). Cells were washed and lysed at 36 hours and the lysates subjected to immunoprecipitation with monoclonal antibodies HMFG2 (lanes 1-6) or 5E5 (lanes 7-12). Immunoprecipitates were analysed by SDS-PAGE and western blot using HMFG2 antibody. Lanes M and C as described in legend to FIG. 7.\nWe next analysed the expression of MUC1 produced by CHO1d1D/MUC1F-clone2 cells by SDS-PAGE western analysis. […] Cells were further treated with 2 mM GalNAcα-benzyl, GlcNAcα-benzyl or no inhibitor. Cells were washed and lysed at 24 or 48 hours and the lysates subjected to immunoprecipitation with monoclonal antibody HMFG2, which broadly recognize MUC1 glycoforms. Immunoprecipitates were analysed by SDS-PAGE and western blot using HMFG2 antibody to detect MUC1 expression. […] In striking contrast, treatment with GalNAcα-benzyl had significant effect after 48 hours. […] This indicates some heterogeneity in glycosylation.\nAs shown in Examples 2 and 3, polypeptide GalNAc-transferases contain lectin domains with binding properties for GalNAc-peptides including GalNAc-MUC1 peptides. […] GalNAcβ-benzyl, the β-anomeric configuration of GalNAc-benzyl (there is a β linkage between the N-acetylgalactosamine and the benzyl ring), was custom synthesized by Alberta Research Council (Canada), and its structure was confirmed by mass spectrometry and ^1H-NMR. […] Cells were then treated with 2 mM GalNAcα-benzyl, GalNAcβ-benzyl, or GlcNAcα-benzyl as control (GlcNAcα-benzyl was shown in Example 4 to have no effect). Cells were washed and lysed as described above after 36 hours and the lysates subjected to immunoprecipitation with anti-MUC1 monoclonal antibodies HMFG2 or 5E5. […] FIG. 15 illustrates the same experiment as in FIG. 14 except that the detection antibody is 5E5 and only Tn and STn MUC1 glycoforms are visualised."}, "GalNAc-T2 lectin domain": {"molecular_target": "T1, GalNAc-T2 lectin domain (Homo sapiens, UniProt Q10471)", "T1 construct": "comprises amino acid residues 408-571 of GALNT2; made in house; host or cells: baculovirus (pAcGP67-A), virus made in Sf9, protein produced in High Five insect cells", "T1 sequence (Q10471 408-571)": "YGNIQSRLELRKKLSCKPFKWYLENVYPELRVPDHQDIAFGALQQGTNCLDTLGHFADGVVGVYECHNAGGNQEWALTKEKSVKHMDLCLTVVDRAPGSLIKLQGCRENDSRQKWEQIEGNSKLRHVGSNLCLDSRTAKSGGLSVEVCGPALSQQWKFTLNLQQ", "test": "Inhibition of GalNAc-T2 lectin domain (T2ld) binding to GalNAc-MUC1 glycopeptide, ELISA", "experimental": "(§1) Direct binding ELISA assay was developed as follows: Polystyrene microtiter plates (Maxisorb, Nunc, Denmark) were coated with peptides or enzymatically glycosylated glycopeptides in PBS overnight at 4° C. Plates were washed and blocked with 0.1% Tween20 and 0.2% BSA in PBS for 1 h at room temperature, followed by incubation with biotinylated proteins in PBS with 0.05% Tween20 for 2 h at room temperature. After four washes with PBS, plates were incubated with 1:2,000 dilution streptavidin-HRP (Sigma) in PBS for 30 min at room temperature and washed four times with PBS. Development was performed with 0.5 mg/ml o-phenylenediamine and 0.02% H2O2 at room temperature for 15 min, and reaction stopped by adding 100 μl/well of 0.5 N H2SO4. Competitive inhibition assays were done at end-point titers of GalNAc-transferase proteins with one hour preincubations with inhibitor.\n(§2) In binding studies using lectins without biotinylation antibodies to the HIS-tag and the T7-tag, or in some experiments antibodies raised to GalNAc-T2 and -T4 enzymes were used to detect binding.\n(§3) Inhibition experiments were used to further define the binding specificity of GalNAc-T2 and -T4 secreted soluble enzymes as well as lectin domains compared to Helix Pomatia lectin (Table IV)."}, "[3]": {"tested_on": "GalNAc-T2 and -T4 secreted soluble enzymes as well as lectin domains", "test": "Inhibition of GalNAc-transferase lectin binding to GalNAc-glycopeptides, statements on GalNAc-T2 and -T4 together", "design": "species or system human", "conditions": "enzymes and isolated lectins", "experimental": "as §1\nLectins and antibodies to carbohydrates usually recognize the anomeric configuration of the sugar structures they bind.\nas §3"}, "[4]": {"molecular_target": "T2, secreted soluble GalNAc-T2 (Homo sapiens, UniProt Q10471)", "T2 construct": "6xHis (N); thrombin cleavage site (N); T7 antibody site (N); made in house; host or cells: baculovirus (pAcGP67A), High Five insect cells", "T2 sequence (Q10471 52-571 limits assumed)": "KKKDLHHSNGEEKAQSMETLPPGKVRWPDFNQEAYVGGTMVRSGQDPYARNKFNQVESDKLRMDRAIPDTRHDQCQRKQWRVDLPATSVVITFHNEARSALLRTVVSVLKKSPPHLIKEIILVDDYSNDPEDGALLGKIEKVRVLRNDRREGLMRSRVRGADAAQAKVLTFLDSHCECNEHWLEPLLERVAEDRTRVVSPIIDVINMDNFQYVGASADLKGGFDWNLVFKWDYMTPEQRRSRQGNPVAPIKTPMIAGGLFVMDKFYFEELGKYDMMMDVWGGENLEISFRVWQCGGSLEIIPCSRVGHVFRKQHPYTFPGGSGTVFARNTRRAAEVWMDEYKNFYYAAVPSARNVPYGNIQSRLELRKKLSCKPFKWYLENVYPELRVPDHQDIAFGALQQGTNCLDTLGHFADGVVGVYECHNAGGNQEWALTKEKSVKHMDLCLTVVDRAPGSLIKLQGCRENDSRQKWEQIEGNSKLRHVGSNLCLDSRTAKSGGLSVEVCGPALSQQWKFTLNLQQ", "test": "Inhibition of secreted soluble GalNAc-T2 (sT2) binding to GalNAc-MUC1 glycopeptide, ELISA", "experimental": "as §1, §3"}, "[5]": {"molecular_target": "T3, secreted soluble GalNAc-T4 (Homo sapiens, UniProt Q8N4A0)", "T3 construct": "6xHis (N); thrombin cleavage site (N); T7 antibody site (N); made in house; host or cells: baculovirus (pAcGP67A), High Five insect cells", "T3 sequence (Q8N4A0 36-578 limits assumed)": "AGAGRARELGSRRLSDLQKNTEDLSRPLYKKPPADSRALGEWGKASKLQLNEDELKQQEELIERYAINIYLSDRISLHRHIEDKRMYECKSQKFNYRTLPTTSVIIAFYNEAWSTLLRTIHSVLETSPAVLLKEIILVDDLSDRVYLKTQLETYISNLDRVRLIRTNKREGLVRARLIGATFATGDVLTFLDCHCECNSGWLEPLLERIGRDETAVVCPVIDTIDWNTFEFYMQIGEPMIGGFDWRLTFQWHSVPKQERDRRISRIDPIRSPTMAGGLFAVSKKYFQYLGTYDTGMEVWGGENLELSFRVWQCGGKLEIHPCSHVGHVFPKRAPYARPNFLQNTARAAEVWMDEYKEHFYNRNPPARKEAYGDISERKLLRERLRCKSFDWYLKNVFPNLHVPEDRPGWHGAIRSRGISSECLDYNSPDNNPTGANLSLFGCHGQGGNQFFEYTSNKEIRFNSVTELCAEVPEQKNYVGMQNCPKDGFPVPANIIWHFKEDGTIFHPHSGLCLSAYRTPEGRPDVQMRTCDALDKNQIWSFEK", "test": "Inhibition of secreted soluble GalNAc-T4 (sT4) binding to GalNAc-MUC1 glycopeptide, ELISA", "experimental": "as §1, §3"}, "GalNAc-T4": {"molecular_target": "GalNAc-T4 (Homo sapiens, UniProt Q8N4A0)", "sequence (Q8N4A0 whole entry)": "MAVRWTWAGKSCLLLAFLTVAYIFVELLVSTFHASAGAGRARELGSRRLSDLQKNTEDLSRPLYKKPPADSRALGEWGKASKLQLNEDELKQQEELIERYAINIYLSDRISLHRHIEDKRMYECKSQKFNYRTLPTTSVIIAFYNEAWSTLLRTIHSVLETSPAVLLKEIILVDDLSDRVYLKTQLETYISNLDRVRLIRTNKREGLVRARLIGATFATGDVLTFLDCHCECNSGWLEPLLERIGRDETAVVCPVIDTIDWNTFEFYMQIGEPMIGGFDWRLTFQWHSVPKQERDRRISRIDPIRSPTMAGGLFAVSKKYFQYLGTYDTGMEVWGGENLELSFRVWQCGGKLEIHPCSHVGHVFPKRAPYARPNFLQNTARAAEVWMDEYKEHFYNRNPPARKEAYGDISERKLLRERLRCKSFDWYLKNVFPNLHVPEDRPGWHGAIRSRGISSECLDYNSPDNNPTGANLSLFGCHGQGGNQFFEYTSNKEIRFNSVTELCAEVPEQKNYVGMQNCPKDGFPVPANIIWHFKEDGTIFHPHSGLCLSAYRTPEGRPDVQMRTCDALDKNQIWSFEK", "conditions": "230 mM; cited from earlier work"}, "GalNAc-T4 lectin domain": {"molecular_target": "T4, GalNAc-T4 lectin domain (Homo sapiens, UniProt Q8N4A0)", "T4 construct": "comprises amino acid residues 405-578 of GALNT4; made in house; host or cells: baculovirus (pAcGP67-A), virus made in Sf9, protein produced in High Five insect cells", "T4 sequence (Q8N4A0 405-578)": "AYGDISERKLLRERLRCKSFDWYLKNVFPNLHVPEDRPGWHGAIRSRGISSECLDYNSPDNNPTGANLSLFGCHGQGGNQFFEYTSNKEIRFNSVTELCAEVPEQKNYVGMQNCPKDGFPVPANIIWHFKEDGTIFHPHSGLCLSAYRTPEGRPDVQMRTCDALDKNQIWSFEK", "test": "Inhibition of GalNAc-T4 lectin domain (T4ld) binding to GalNAc-MUC1 glycopeptide, ELISA", "experimental": "as §1, §2, §3"}, "[6]": {"molecular_target": "T5, human GalNAc-T2 (UDP-GalNAc:polypeptide N-acetylgalactosaminyltransferase T2) isolated truncated lectin domain (T2ld), HIS-tagged, amino acid residues 408-571 o (Homo sapiens, UniProt Q10471)", "T5 sequence (Q10471 408-571)": "T1 sequence (Q10471 408-571)", "assay_type": "binding", "from_the_text": "(§4) In order to minimize the size and functional complexity of GalNAc-transferase lectins to be used as probes for binding studies, we used multiple sequence alignment analysis to predict and design suitable expression constructs for isolated lectin domains (FIG. 2). In the present invention a direct binding assay was developed using isolated lectin domains of GalNAc-T4 and -T2 with minimal size (FIG. 5). […] The lectin Helix Pomatia (HP) was used as a control plant lectin with known binding specificity for […].\nas §1, §2, §3\n(§5) The ligand target used in this Example is a GalNAc-MUC1 glycopeptide produced enzymatically from synthetic peptides."}, "[7]": {"molecular_target": "human GalNAc-T4 (UDP-GalNAc:polypeptide N-acetylgalactosaminyltransferase T4) isolated truncated lectin domain (T4ld), HIS-tagged, amino acid residues 405-578 o (Homo sapiens, UniProt Q8N4A0)", "sequence (Q8N4A0 405-578)": "as above", "test": "biochemical", "assay_type": "binding", "conditions": "isolated lectin domain", "from_the_text": "as §4, §1, §2, §3, §5"}}, "note": "“Also recorded” adds a separate entry of the source.", "data": [{"compound": "CC(=O)N[C@H]1[C@@H](OCc2ccccc2)O[C@H](CO)[C@@H](O)[C@@H]1O", "note": "[BzlαGlcNAc]", "values": [{"measurement": "MUC5AC in media (secretion)", "setting": "[1]", "value": "detected"}, {"measurement": "MUC1 expression", "setting": "[2]; HMFG2 blot, cells grown in GalNAc or Gal and GalNAc, listed as GlcNAcα-benzyl", "value": "same glycoforms at similar intensity; also recorded: no effect"}, {"measurement": "SDS-PAGE migration of MUC1 (O-glycosylation)", "setting": "[2]; cells grown in Gal and GalNAc", "value": "no effect"}]}, {"compound": "CC(=O)N[C@H]1C(O)O[C@H](CO)[C@H](O)[C@@H]1O", "note": "(some centres unmarked) [GalNAc, N-acetylgalactosamine]", "values": [{"measurement": "IC50", "setting": "GalNAc-T2 lectin domain", "value": 37, "unit": "mM"}, {"measurement": "inhibition of GalNAc-T2 and -T4 lectin mediated binding, in words", "setting": "[3]", "value": "selectively inhibited"}, {"measurement": "IC50", "setting": "[4]", "value": 15, "unit": "mM"}, {"measurement": "IC50", "setting": "[5]", "value": 1, "unit": "mM"}, {"measurement": "inhibition of GalNAc-glycopeptide activity of GalNAc-T4", "setting": "GalNAc-T4", "value": "selective inhibition"}, {"measurement": "IC50", "setting": "GalNAc-T4 lectin domain", "value": 5, "unit": "mM"}]}, {"compound": "OC[C@H]1OC(O)[C@H](O)[C@@H](O)[C@H]1O", "note": "(some centres unmarked) [Gal]", "values": [{"measurement": "inhibition of GalNAc-T2 lectin domain binding (in words)", "setting": "[6]", "value": "no inhibitory effect"}, {"measurement": "inhibition of GalNAc-T4 lectin domain binding (in words)", "setting": "[7]", "value": "no inhibitory effect"}]}]}
